Patent US7514445B2, “Heteroaryl amines as glycogen synthase kinase 3β inhibitors (GSK3 inhibitors)” (Janssen Pharmaceutica N.V., priority 2001, dated 2009)

target: GSK3β (Homo sapiens, UniProt P49841); experiment: GSK3beta assay (SPA, phosphorylation of biotinylated phosphorylated CREB peptide, ATP-P33); type: biochemical; details: -log IC50 (M); 25° C., 19 nM GSK3β, 5 μM biotinylated phosphorylated CREB peptide, 1 μM ATP, one hour
Procedure: GSK3beta assays were performed at 25° C. in a 100 μl reaction volume of 25 mM Tris (pH 7.4) containing 10 mM MgCl2, 1 mM DTT, 0.1 mg/ml BSA, 5% glycerol and containing 19 nM GSK3β, 5 μM biotinylated phosphorylated CREB peptide, 1 μM ATP, 2 nM ATP-P^33 and a suitable amount of a test compound of formula (I) or (I′). After one hour, the reaction was terminated by adding 70 μl of Stop mix (1 mM ATP, 18 mg/ml streptavidin coated PVT SPA bead pH 11.0). The beads to which the phosphorylated CREB peptide is attached were allowed to settle for 30 minutes and the radioactivity of the beads was counted in a microtiterplate scintillation counter and compared with the results obtained in a control experiment (without the presence of a test compound) in order to determine the percentage of GSK3β, inhibition. The IC50 value, i.e. the concentration (M) of the test compound at which 50% of GSK3, is inhibited, was calculated from the dose response curve obtained by performing the above-described GSK3β assay in the presence of different amounts of the test compound.
Table 5 lists pIC50 values (-log IC50 (M)) obtained in the above-described test for the present compounds.

GSK3β, sequence (P49841 whole entry, species assumed): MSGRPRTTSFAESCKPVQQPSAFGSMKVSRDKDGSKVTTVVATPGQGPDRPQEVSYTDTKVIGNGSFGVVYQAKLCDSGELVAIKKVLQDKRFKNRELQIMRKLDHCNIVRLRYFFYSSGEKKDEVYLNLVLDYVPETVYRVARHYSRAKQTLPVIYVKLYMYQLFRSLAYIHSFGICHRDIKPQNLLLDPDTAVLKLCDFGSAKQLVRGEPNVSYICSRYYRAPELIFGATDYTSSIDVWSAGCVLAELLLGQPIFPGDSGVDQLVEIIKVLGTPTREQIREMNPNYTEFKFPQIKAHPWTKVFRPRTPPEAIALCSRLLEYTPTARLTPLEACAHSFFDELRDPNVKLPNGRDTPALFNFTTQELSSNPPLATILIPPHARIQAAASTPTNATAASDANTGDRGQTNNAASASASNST

IC50 [M] | SMILES
1.82e-06 | N#Cc1ccc(Nc2nccc(NCc3cccs3)n2)cc1 [Compound 22, 4-[4-[(thiophen-2-ylmethyl)-amino]-pyrimidin-2-ylamino]-benzonitrile]
9.77e-08 | Cn1ccnc1-c1ccnc(Nc2ccc(C#N)c(OCc3ccccc3)c2)n1 [Compound 6, 4-[[4-(1-methyl-1H-imidazol-2-yl)-2-pyrimidinyl]amino]-2-(phenylmethoxy)-benzonitrile]
7.76e-08 | Cn1ccnc1-c1ccnc(Nc2ccc(C#N)cc2)n1 [Compound 33, 4-[[4-(1-methyl-1H-imidazol-2-yl)-2-pyrimidinyl]amino]-benzonitrile]
5.01e-06 | Cc1cc(C)c(Nc2ccnc(Nc3ccc4c(c3)OCO4)n2)c(C)c1 [Compound 17, N^2-benzo[1,3]dioxol-5-yl-N^4(2,4,6-trimethyl-phenyl)-2,4-pyrimidinediamine]
1.91e-06 | CCN1CCCC1CNc1ccnc(Nc2ccc(C#N)cc2)n1 (stereo not shown) [Compound 25]
5.25e-07 | Cc1cc(C)c(Nc2ccnc(Nc3ccc4[nH]ncc4c3)n2)c(C)c1 [Compound 2, N^2-(1H-indazol-5-yl)-N^4-(2,4,6-trimethylphenyl)-2,4-pyrimidinediamine]
3.63e-06 | Cc1cc(C)c(Nc2ccnc(Nc3ccc4ncccc4c3)n2)c(C)c1 [Compound 20, N^2-quinolin-6-yl-N-4-(2,4,6-trimethyl-phenyl)-2,4-pyrimidinediamine]
4.37e-06 | CC1(C)OCC(CNc2ccnc(Nc3ccc(C#N)cc3)n2)O1 (stereo not shown) [Compound 24]
1.55e-06 | N#Cc1ccc(Nc2nccc(NCc3ccco3)n2)cc1 [Compound 26, 4-[4-[(furan-2-ylmethyl)-amino]-pyrimidin-2-ylamino]-benzonitrile]
2.95e-06 | N#Cc1ccc(Nc2nccc(C(=O)N3CCNCC3)n2)cc1OCc1ccccc1 [Compound 4]
